According to the supplement of paper PMC13380429:

What was measured:
Conditions in all cases: 72 h
[1] = system: HepG2; assay: drug sensitivity score (DSS) for viability; higher = more toxic; extreme values may be limits of the assay
[2] = system: Vero E6; assay: as above
[3] = system: Calu-3; assay: as above
[4] = system: U2OS; assay: as above
[5] = system: Caco-2; assay: as above
[6] = system: HepG2; assay: cell viability relative to DMSO; higher = less toxic
[7] = system: Vero E6; assay: as above
[8] = system: Calu-3; assay: as above
[9] = system: U2OS; assay: as above
[10] = system: Caco-2; assay: as above
[11] = system: HepG2; assay: relative viability EC50 (midpoint between 100% and the lowest measured viability); higher = less toxic
[12] = system: Vero E6; assay: as above
[13] = system: Calu-3; assay: as above
[14] = system: U2OS; assay: as above
[15] = system: Caco-2; assay: as above

| Compound | drug sensitivity score [1] | drug sensitivity score [2] | drug sensitivity score [3] | drug sensitivity score [4] | drug sensitivity score [5] | cell viability ([6]; 1 nM) [%] | cell viability ([6]; 10 nM) [%] | cell viability ([6]; 100 nM) [%] | cell viability ([6]; 1000 nM) [%] | cell viability ([6]; 10000 nM) [%] | cell viability ([7]; 1 nM) [%] | cell viability ([7]; 10 nM) [%] | cell viability ([7]; 100 nM) [%] | cell viability ([7]; 1000 nM) [%] | cell viability ([7]; 10000 nM) [%] | cell viability ([8]; 1 nM) [%] | cell viability ([8]; 10 nM) [%] | cell viability ([8]; 100 nM) [%] | cell viability ([8]; 1000 nM) [%] | cell viability ([8]; 10000 nM) [%] | cell viability ([9]; 1 nM) [%] | cell viability ([9]; 10 nM) [%] | cell viability ([9]; 100 nM) [%] | cell viability ([9]; 1000 nM) [%] | cell viability ([9]; 10000 nM) [%] | cell viability ([10]; 1 nM) [%] | cell viability ([10]; 10 nM) [%] | cell viability ([10]; 100 nM) [%] | cell viability ([10]; 1000 nM) [%] | cell viability ([10]; 10000 nM) [%] | relative viability EC50 [11] [µM] | relative viability EC50 [12] [µM] | relative viability EC50 [13] [µM] | relative viability EC50 [14] [µM] | relative viability EC50 [15] [µM] |
| --- | --- | --- | --- | --- | --- | --- | --- | --- | --- | --- | --- | --- | --- | --- | --- | --- | --- | --- | --- | --- | --- | --- | --- | --- | --- | --- | --- | --- | --- | --- | --- | --- | --- | --- | --- |
| COc1cnc(-c2ccc(Cn3c(CC(C)(C)C(=O)O)c(SC(C)(C)C)c4cc(OC[C@@H]5Cc6ccccc6N5C(C)=O)ccc43)cc2)nc1 [AM679] | 0 | 0 | 0 | 0 | 0 | 103 | 104 | 101 | 102 | 93.4 | 114 | 105 | 106 | 99.9 | 128 | 101 | 95.4 | 101 | 109 | 107 | 102 | 99.8 | 99.7 | 100 | 98.1 | 102 | 94 | 99 | 97 | 92.4 | > 10 | > 10 | > 10 | > 10 | > 10 |
| O=C(Nc1ccccc1)OCC(CN1CCCCC1)OC(=O)Nc1ccccc1 (stereo not given) [diperodon] | 0 | 0 | 0 | 0 | 0 | 100 | 97.8 | 96.1 | 110 | 103 | 90.9 | 95.5 | 87 | 96.6 | 100 | 112 | 122 | 93.3 | 104 | 98.8 | 95.5 | 93.6 | 94.5 | 91.8 | 94.4 | 87.6 | 89.7 | 87.6 | 83 | 95.5 | > 10 | > 10 | > 10 | > 10 | > 10 |
| C[C@@H](Oc1ccc2[nH]nc(/C=C/c3cnn(CCO)c3)c2c1)c1c(Cl)cncc1Cl | 12.1 | 8.9 | 7.2 | 14 | 6.1 | 108 | 102 | 85.5 | 46.4 | 10.6 | 95.3 | 92.4 | 98.6 | 71.9 | 12.7 | 101 | 99.9 | 98.6 | 75.5 | 31.8 | 94.3 | 94.3 | 91 | 33.5 | 0.2 | 87.3 | 99.5 | 91.5 | 83.3 | 33.1 | 0.617 | 1.35 | 1.26 | 0.582 | 1.61 |
| O=C(O)CCC/C=C\C[C@@H]1[C@@H](/C=C/[C@@H](O)COc2cccc(Cl)c2)[C@H](O)C[C@@H]1O (racemic) [cloprostenol-(+/-)] | 0 | 0 | 0 | 0 | 0 | 98.2 | 106 | 104 | 103 | 104 | 99.1 | 103 | 105 | 102 | 102 | 110 | 108 | 106 | 95.5 | 100 | 103 | 106 | 99.9 | 102 | 97.6 | 100 | 104 | 96.1 | 97.7 | 92.3 | > 10 | > 10 | > 10 | > 10 | > 10 |
| CC(CCc1ccc(O)cc1)NCCc1ccc(O)c(O)c1 (stereo not given) [dobutamine] | 0 | 0 | 0 | 0 | 0 | 106 | 110 | 93.1 | 96.7 | 93.3 | 106 | 103 | 97.1 | 98.5 | 103 | 90.2 | 79.6 | 92.8 | 96.9 | 105 | 101 | 96.6 | 97.7 | 102 | 98 | 106 | 99.2 | 99.3 | 95 | 104 | > 10 | > 10 | > 10 | > 10 | > 10 |
| CC(C)(Oc1ccc(CCNC(=O)c2ccc(Cl)cc2)cc1)C(=O)O [bezafibrate] | 0 | 0 | 0 | 0 | 0 | 98.1 | 93.1 | 91.5 | 97.4 | 102 | 106 | 105 | 101 | 104 | 93.4 | 110 | 98.5 | 108 | 97 | 98.4 | 102 | 97 | 96.2 | 94 | 98.3 | 102 | 95.7 | 96.8 | 98 | 94.3 | > 10 | > 10 | > 10 | > 10 | > 10 |
| COc1cc(Cc2cnc(N)nc2N)cc(OC)c1OC [trimethoprim] | 0 | 0 | 0 | 0 | 0 | 82.4 | 102 | 106 | 89.8 | 97.6 | 99.8 | 91.4 | 100 | 94.4 | 96.4 | 103 | 89.6 | 107 | 110 | 113 | 92.3 | 98.4 | 96 | 99.6 | 105 | 114 | 113 | 119 | 103 | 90.1 | > 10 | > 10 | > 10 | > 10 | > 10 |
| CC(C)(C)c1ccc2cc(C#N)c(C#N)cc2c1 [BRD9876] | 0 | 0 | 0.2 | 0 | 0.1 | 97.7 | 98.8 | 90.7 | 89.9 | 97.6 | 98.5 | 104 | 99.2 | 99.4 | 97.8 | 103 | 100 | 90.2 | 95.8 | 85.9 | 101 | 106 | 95.6 | 99.8 | 94.9 | 99 | 98.6 | 102 | 96 | 89 | > 10 | > 10 | > 10 | > 10 | > 10 |
| O=C(NC(Cc1cc(=O)[nH]c2ccccc12)C(=O)O)c1ccc(Cl)cc1 (stereo not given) [rebamipide] | 0 | 0 | 0 | 0 | 0 | 107 | 89.4 | 108 | 105 | 104 | 101 | 96 | 97.6 | 96.8 | 110 | 99.2 | 97.5 | 92.7 | 99.7 | 106 | 90.5 | 96.7 | 93.9 | 103 | 110 | 92.6 | 97.7 | 89.9 | 100 | 99.3 | > 10 | > 10 | > 10 | > 10 | > 10 |
| OCc1ccccc1O [salicyl-alcohol] | 0 | 0 | 0 | 0 | 0 | 104 | 98.2 | 85.7 | 105 | 94.2 | 98.8 | 104 | 95.5 | 105 | 110 | 95.5 | 109 | 108 | 94.2 | 96.9 | 103 | 95.4 | 101 | 94.4 | 98.6 | 101 | 97.3 | 111 | 107 | 102 | > 10 | > 10 | > 10 | > 10 | > 10 |
| CC(=O)c1ccc2c(c1)[C@H](NC(=O)c1ccc(F)c(Cl)c1)[C@H](O)C(C)(C)O2 [tonabersat] | 0 | 0 | 0 | 0 | 0 | 95 | 95.3 | 126 | 97.9 | 90.2 | 109 | 110 | 103 | 100 | 98.6 | 95.4 | 100 | 99 | 106 | 111 | 100 | 105 | 92.1 | 101 | 101 | 88.2 | 123 | 81.3 | 107 | 86.6 | > 10 | > 10 | > 10 | > 10 | > 10 |
| CCCNC(C)C(=O)Nc1c(C)csc1C(=O)OC (stereo not given) [articaine] | 0 | 0 | 0 | 0 | 0 | 97.9 | 105 | 110 | 104 | 112 | 93.4 | 93.1 | 96.1 | 97.3 | 108 | 94 | 94.6 | 100 | 93.5 | 106 | 96.5 | 95.8 | 99.7 | 92.8 | 105 | 98.5 | 96.7 | 95.2 | 104 | 105 | > 10 | > 10 | > 10 | > 10 | > 10 |
| C=C(C)[C@@H]1CCC(C)=C[C@H]1c1c(OC)cc(C)cc1OC [O-1918] | 0 | 0 | 0 | 0 | 0 | 101 | 94.9 | 104 | 95.3 | 95.9 | 106 | 102 | 106 | 99.5 | 102 | 102 | 97.5 | 96 | 91.6 | 95.9 | 102 | 106 | 97 | 101 | 99 | 96.4 | 105 | 100 | 98.5 | 105 | > 10 | > 10 | > 10 | > 10 | > 10 |
| CN(C)CCOC(c1ccccc1)c1ccccc1.Cn1c(=O)c2[nH]c(Cl)nc2n(C)c1=O [dimenhydrinate] | 0 | 0 | 0 | 0 | 0 | 95.7 | 103 | 110 | 107 | 106 | 93.8 | 99.7 | 96.2 | 100 | 103 | 103 | 94.4 | 97.2 | 99.2 | 98 | 102 | 96.5 | 98 | 102 | 106 | 96.3 | 88.1 | 88.1 | 104 | 99.5 | > 10 | > 10 | > 10 | > 10 | > 10 |
